{"source": "patent US7951811B2", "about": "“Pyrrolo[2,3-D]pyrimidine derivatives substituted with a cyclic amino group” (Taisho Pharmaceutical Co., Ltd., priority 2004, dated 2011)", "data": [{"molecular_target": "T1, δ receptor (delta opioid receptor) (Rattus norvegicus, UniProt P33533)", "T1 construct": "Rat Brain Membranes were Used as a Receptor Preparation; from tissue; host or cells: rat brain membranes", "T1 sequence (P33533 whole entry)": "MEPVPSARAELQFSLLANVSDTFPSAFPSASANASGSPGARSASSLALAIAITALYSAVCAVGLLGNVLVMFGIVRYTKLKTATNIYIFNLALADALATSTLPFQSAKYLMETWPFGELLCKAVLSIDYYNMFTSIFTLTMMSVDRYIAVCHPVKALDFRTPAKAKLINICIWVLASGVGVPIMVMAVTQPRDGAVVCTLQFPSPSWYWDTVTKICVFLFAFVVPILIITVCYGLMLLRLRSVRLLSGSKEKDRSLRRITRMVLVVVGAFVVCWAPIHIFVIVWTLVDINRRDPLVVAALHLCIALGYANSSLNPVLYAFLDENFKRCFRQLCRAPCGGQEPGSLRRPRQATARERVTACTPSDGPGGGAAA", "experiment": "δ receptor binding test (3H-DPDPE displacement)", "settings": "rat brain membranes, 3H-DPDPE 1.5 nM, 25° C., 70 minutes; read-out: IC50 (concentration at which binding of 3H-DPDPE is inhibited by 50%)", "method": "Rat Brain Membranes were Used as a Receptor Preparation.\n^3H-DPDPE ([D-Pen^2,D-Pen^5]-Enkephalin) was used as ^3H-labeled ligand.\nBinding reaction using the ^3H-labeled ligand was carried out by the following method.\nPreparation of Receptor Membranes:\nRat brain was homogenized in 50 mM Tris-HCl buffer (pH 7.4) containing 10 mM MgCl2 and 1 mM EDTA, and centrifuged at 48,000×g for 20 min, and the precipitate was washed once with Tris-HCl buffer. The washed precipitate was suspended in 50 mM Tris-HCl buffer (pH 7.4) containing 10 mM MgCl2 and 1 mM EDTA, to obtain a membrane preparation.\nDelta Opioid Receptor Binding Test:\nThe membrane preparation (1 mg protein/ml), H-DPDPE (1.5 nM) and a test drug were reacted at 25° C. for 70 minutes. After completion of the reaction, the reaction mixture was filtered by suction through a glass filter (GF/B) treated with 0.3% polyethylene imine, and the glass filter was washed three times with 50 mM Tris-HCl buffer (pH 7.4) containing 10 mM MgCl2 and 1 mM EDTA. After the washing, scintillation cocktail was added to the filters, and the radioactivity of the filter was measured in a liquid scintillation counter.\nThe amount of ^3H-DPDPE bound when the reaction was carried out in the presence of 10 μM naltrindole was taken as the degree of nonspecific binding of ^3H-DPDPE, and the difference between the total degree of ^3H-DPDPE binding and the degree of nonspecific ^3H-DPDPE binding was taken as the degree of specific ^3H-DPDPE binding. An inhibition curve was obtained by reacting a definite concentration (1.5 nM) of ^3H-DPDPE with various concentrations of each test drug under the conditions described above. A concentration of the test drug at which binding of ^3H-DPDPE is inhibited by 50% (IC50) was determined from the inhibition curve.", "units": {"IC50": "nM"}, "values": [{"molecule": "Cc1cc(N2CCC(CCC(=O)O)CC2)c2c(C)c(C)n(-c3c(C)cc(Cl)cc3C)c2n1", "note": "[Compound 1-021, 3-{1-[1-(4-chloro-2,6-dimethyl-phenyl)-2,3,6-trimethyl-1H-pyrrolo[2,3-b]pyridin-4-yl]-piperidin-4-yl}-propionic acid]", "IC50": "≤ 500"}, {"molecule": "Cc1nc(N2CCC(CC(=O)O)CC2)c2c(C)c(C)n(-c3c(C)cc(Br)cc3C)c2n1", "note": "[Compound 1-001, {1-[7-(4-bromo-2,6-dimethyl-phenyl)-2,5,6-trimethyl-7H-pyrrolo[2,3-d]pyrimidin-4-yl]-piperidin-4-yl}-acetic acid]", "IC50": "≤ 500"}, {"molecule": "Cc1nc(N2CCC(CCC(=O)O)CC2)c2c(C)cn(-c3c(C)cc(Br)cc3C)c2n1", "note": "[Compound 1-018, 3-{1-[7-(4-bromo-2,6-dimethyl-phenyl)-2,5-dimethyl-7H-pyrrolo[2,3-d]pyrimidin-4-yl]-piperidin-4-yl}-propionic acid]", "IC50": "≤ 500"}, {"molecule": "Cc1cc(N2CCC(CC(=O)O)CC2)c2c(C)cn(-c3c(C)cc(Br)cc3C)c2n1", "note": "[Compound 1-004, {1-[1-(4-bromo-2,6-dimethyl-phenyl)-3,6-dimethyl-1H-pyrrolo[2,3-b]pyridin-4-yl]-piperidin-4-yl}-acetic acid]", "IC50": "≤ 500"}, {"molecule": "Cc1cc(N2CCC(CCS(=O)(=O)O)CC2)c2c(C)cn(-c3c(C)cc(Br)cc3C)c2n1", "note": "[Compound 1-048, 2-{1-[1-(4-bromo-2,6-dimethyl-phenyl)-3,6-dimethyl-1H-pyrrolo[2,3-b]pyridin-4-yl]-piperidin-4-yl}-ethanesulfonic acid]", "IC50": "≤ 500"}, {"molecule": "Cc1cc(N2CCC(CC(=O)O)CC2)c2c(C)c(C)n(-c3c(C)cc(Br)cc3C)c2n1", "note": "[Compound 1-003, {1-[1-(4-bromo-2,6-dimethyl-phenyl)-2,3,6-trimethyl-1H-pyrrolo[2,3-b]pyridin-4-yl]-piperidin-4-yl}-acetic acid]", "IC50": "≤ 500"}, {"molecule": "Cc1cc(N2CCC(CCC(=O)O)CC2)c2c(C)cn(-c3c(Cl)cc(Cl)cc3Cl)c2n1", "note": "[Compound 1-026, 3-{1-[3,6-dimethyl-1-(2,4,6-trichloro-phenyl)-1H-pyrrolo[2,3-b]pyridin-4-yl]piperidin-4-yl}-propionic acid]", "IC50": "≤ 500"}, {"molecule": "Cc1cc(N2CCC(CP(=O)(O)O)CC2)c2c(C)cn(-c3c(C)cc(Br)cc3C)c2n1", "note": "[Compound 1-045, {1-[1-(4-bromo-2,6-dimethyl-phenyl)-3,6-dimethyl-1H-pyrrolo[2,3-b]pyridin-4-yl]-piperidin-4-ylmethyl}-phosphonic acid]", "IC50": "≤ 500"}, {"molecule": "Cc1cc(N2CCC(CC(=O)O)CC2)c2c(C)c(C)n(-c3c(C)cc(Cl)cc3C)c2n1", "note": "[Compound 1-005, {1-[1-(4-chloro-2,6-dimethyl-phenyl)-2,3,6-trimethyl-1H-pyrrolo[2,3-b]pyridin-4-yl]-piperidin-4-yl}-acetic acid]", "IC50": "≤ 500"}, {"molecule": "Cc1cc(N2CCC(CC(=O)O)CC2)c2c(C)cn(-c3c(Cl)cc(Cl)cc3Cl)c2n1", "note": "[Compound 1-011, {1-[3,6-dimethyl-1-(2,4,6-trichloro-phenyl)-1H-pyrrolo[2,3-b]pyridin-4-yl]-piperidin-4-yl}-acetic acid]", "IC50": "≤ 500"}, {"molecule": "Cc1cc(N2CCC(CC(=O)O)CC2)c2c(C)cn(-c3c(C)cc(Cl)cc3C)c2n1", "note": "[Compound 1-006, {1-[1-(4-chloro-2,6-dimethyl-phenyl)-3,6-dimethyl-1H-pyrrolo[2,3-b]pyridin-4-yl]-piperidin-4-yl}-acetic acid]", "IC50": "≤ 500"}, {"molecule": "Cc1cc(N2CCC(CCC(=O)O)CC2)c2c(C)cn(-c3c(Cl)cc(Br)cc3Cl)c2n1", "note": "[Compound 1-025, 3-{1-[1-(4-bromo-2,6-dichloro-phenyl)-3,6-dimethyl-1H-pyrrolo[2,3-b]pyridin-4-yl]-piperidin-4-yl}-propionic acid]", "IC50": "≤ 500"}, {"molecule": "Cc1cc(N2CCC(CCC(=O)O)CC2)c2c(C)cn(-c3c(Br)cc(Cl)cc3Br)c2n1", "note": "[Compound 1-027, 3-{1-[1-(2,6-dibromo-4-chloro-phenyl)-3,6-dimethyl-1H-pyrrolo[2,3-b]pyridin-4-yl]-piperidin-4-yl}-propionic acid]", "IC50": "≤ 500"}, {"molecule": "Cc1cc(N2CCC(CS(=O)(=O)O)CC2)c2c(C)cn(-c3c(C)cc(Br)cc3C)c2n1", "note": "[Compound 1-047, {1-[1-(4-bromo-2,6-dimethyl-phenyl)-3,6-dimethyl-1H-pyrrolo[2,3-b]pyridin-4-yl]-piperidin-4-yl}-methanesulfonic acid]", "IC50": "≤ 500"}, {"molecule": "Cc1cc(N2CCC(CCCC(=O)O)CC2)c2c(C)c(C)n(-c3c(C)cc(Br)cc3C)c2n1", "note": "[Compound 1-032, 4-{1-[1-(4-bromo-2,6-dimethyl-phenyl)-2,3,6-trimethyl-1H-pyrrolo[2,3-b]pyridin-4-yl]-piperidin-4-yl}-butyric acid]", "IC50": "≤ 500"}, {"molecule": "Cc1cc(N2CCC(CC(=O)O)CC2)c2c(C)cn(-c3c(Br)cc(Cl)cc3Br)c2n1", "note": "[Compound 1-012, {1-[1-(2,6-dibromo-4-chloro-phenyl)-3,6-dimethyl-1H-pyrrolo[2,3-b]pyridin-4-yl]-piperidin-4-yl}-acetic acid]", "IC50": "≤ 500"}, {"molecule": "Cc1nc(N2CCC(CC(=O)O)CC2)c2c(C)cn(-c3c(C)cc(Br)cc3C)c2n1", "note": "[Compound 1-002, {1-[7-(4-bromo-2,6-dimethyl-phenyl)-2,5-dimethyl-7H-pyrrolo[2,3-d]pyrimidin-4-yl]-piperidin-4-yl}-acetic acid]", "IC50": "≤ 500"}, {"molecule": "Cc1cc(N2CCC(CCC(=O)O)CC2)c2c(C)c(C)n(-c3c(C)cc(Br)cc3C)c2n1", "note": "[Compound 1-019, 3-{1-[1-(4-bromo-2,6-dimethyl-phenyl)-2,3,6-trimethyl-1H-pyrrolo[2,3-b]pyridin-4-yl]-piperidin-4-yl}-propionic acid]", "IC50": "≤ 500"}, {"molecule": "Cc1cc(N2CCC(CC(=O)O)CC2)c2c(C)cn(-c3ccc(Br)cc3Br)c2n1", "note": "[Compound 1-016, {1-[1-(2,4-dibromo-phenyl)-3,6-dimethyl-1H-pyrrolo[2,3-b]pyridin-4-yl]-piperidin-4-yl}-acetic acid]", "IC50": "≤ 500"}, {"molecule": "Cc1cc(N2CCC(CCC(=O)O)CC2)c2c(C)cn(-c3c(C)cc(Br)cc3C)c2n1", "note": "[Compound 1-020, 3-{1-[1-(4-bromo-2,6-dimethyl-phenyl)-3,6-dimethyl-1H-pyrrolo[2,3-b]pyridin-4-yl]-piperidin-4-yl}-propionic acid]", "IC50": "≤ 500"}, {"molecule": "Cc1cc(N2CCC(CCC(=O)O)CC2)c2c(C)cn(-c3c(C)cc(Cl)cc3C)c2n1", "note": "[Compound 1-022, 3-{1-[1-(4-chloro-2,6-dimethyl-phenyl)-3,6-dimethyl-1H-pyrrolo[2,3-b]pyridin-4-yl]-piperidin-4-yl}-propionic acid]", "IC50": "≤ 500"}]}]}
